Laboratory results from PubChem BioAssay AID256 (DTP/NCI, 2004).
Where “and” joins values, the source holds several entries; their conditions need not be identical. Identical values can stand only once. Inconclusive results and toxic doses are left out. The calls were made as follows: active = survival T/C of 150% or more; inactive = T/C below 125% in these data.

System: CD2F1 mice, L1210 leukemia ip, survival T/C
Experiment: NCI In Vivo Anticancer Drug Screen. Data for tumor model L1210 Leukemia (intraperitoneal) in CD2F1 (CDF1) mice
Details: higher = longer survival
Procedure, shortened: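 Tumor-bearing mice (transplanted tumor) were split into treated and vehicle control groups, and the measured endpoint of each treated group was divided by that of its vehicle controls.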

[1] = endpoint: mean survival time, dose: 100.0 mg/kg/injection, schedule: Q04DX003 (ip), vehicle: saline with Tween-80
[2] = endpoint: mean survival time, dose: 200.0 mg/kg/injection, schedule: Q04DX003 (ip), vehicle: saline with Tween-80
[3] = endpoint: mean survival time, dose: 400.0 mg/kg/injection, schedule: Q04DX003 (ip), vehicle: saline with Tween-80
[4] = endpoint: mean survival time, dose: 100.0 mg/kg/injection, schedule: Q01DX009 (ip), vehicle: saline with Tween-80
[5] = endpoint: mean survival time, dose: 200.0 mg/kg/injection, schedule: Q01DX009 (ip), vehicle: saline with Tween-80
[6] = endpoint: mean survival time, dose: 400.0 mg/kg/injection, schedule: Q01DX009 (ip), vehicle: saline with Tween-80
[7] = endpoint: mean survival time, dose: 12.5 mg/kg/injection, schedule: Q01DX009 (ip), vehicle: saline with Tween-80
[8] = endpoint: mean survival time, dose: 50.0 mg/kg/injection, schedule: Q01DX009 (ip), vehicle: saline with Tween-80
[9] = endpoint: mean survival time, dose: 100.0 mg/kg/injection, schedule: Q04DX002 (ip), vehicle: saline with Tween-80
[10] = endpoint: mean survival time, dose: 200.0 mg/kg/injection, schedule: Q04DX002 (ip), vehicle: saline with Tween-80
[11] = endpoint: mean survival time, dose: 400.0 mg/kg/injection, schedule: Q04DX002 (ip), vehicle: saline with Tween-80

Measured: T/C

Cc1c2ccccc2c(C)c2c1cc(C(=O)O)c1ccccc12
inactive: endpoint: mean survival time, dose: 12.5 mg/kg/injection, schedule: Q04DX002 (ip), vehicle: Klucel (hydroxypropylcellulose) (HPC) 106 % of control | endpoint: mean survival time, dose: 25.0 mg/kg/injection, schedule: Q04DX002 (ip), vehicle: Klucel (hydroxypropylcellulose) (HPC) 101 % of control | endpoint: mean survival time, dose: 50.0 mg/kg/injection, schedule: Q04DX002 (ip), vehicle: Klucel (hydroxypropylcellulose) (HPC) 106 % of control | endpoint: mean survival time, dose: 100.0 mg/kg/injection, schedule: Q04DX002 (ip), vehicle: Klucel (hydroxypropylcellulose) (HPC) 107 % of control | endpoint: mean survival time, dose: 150.0 mg/kg/injection, schedule: Q04DX002 (ip), vehicle: Klucel (hydroxypropylcellulose) (HPC) 112 % of control | endpoint: median survival time, dose: 25.0 mg/kg/injection, schedule: Q01DX009 (ip), vehicle: sodium bicarbonate 111 % of control | endpoint: median survival time, dose: 50.0 mg/kg/injection, schedule: Q01DX009 (ip), vehicle: sodium bicarbonate 115 % of control and 117 % of control | endpoint: median survival time, dose: 200.0 mg/kg/injection, schedule: Q01DX009 (ip), vehicle: sodium bicarbonate 122 % of control | endpoint: median survival time, dose: 400.0 mg/kg/injection, schedule: Q01DX009 (ip), vehicle: sodium bicarbonate 107 % of control

Cn1c(-c2ccc(/C=N\N3CCN(/N=C/c4ccc(-c5c[n+]6ccsc6n5C)cc4)CC3)cc2)c[n+]2ccsc12
inactive: endpoint: median survival time, dose: 0.75 mg/kg/injection, schedule: Q01DX005 (ip), vehicle: saline with Tween-80 113 % of control | endpoint: median survival time, dose: 1.5 mg/kg/injection, schedule: Q01DX005 (ip), vehicle: saline with Tween-80 115 % of control | endpoint: median survival time, dose: 3.0 mg/kg/injection, schedule: Q01DX005 (ip), vehicle: saline with Tween-80 116 % of control

O=C(O)Cc1ccc(Br)cc1[N+](=O)[O-]
inactive: endpoint: mean survival time, dose: 100.0 mg/kg/injection, schedule: Q01DX001 (ip), vehicle: other 104 % of control | endpoint: mean survival time, dose: 200.0 mg/kg/injection, schedule: Q01DX001 (ip), vehicle: other 101 % of control | endpoint: mean survival time, dose: 400.0 mg/kg/injection, schedule: Q01DX001 (ip), vehicle: other 98 % of control

N#CC(C#N)=Cc1cccc2ccccc12
inactive: endpoint: mean survival time, dose: 50.0 mg/kg/injection, schedule: Q04DX003 (ip), vehicle: Klucel (hydroxypropylcellulose) (HPC) 98 % of control | endpoint: mean survival time, dose: 100.0 mg/kg/injection, schedule: Q04DX003 (ip), vehicle: Klucel (hydroxypropylcellulose) (HPC) 103 % of control | endpoint: mean survival time, dose: 200.0 mg/kg/injection, schedule: Q04DX003 (ip), vehicle: Klucel (hydroxypropylcellulose) (HPC) 101 % of control

CC(=O)OC1COC(n2c(O)c(N=NC(N)=S)c3cc([N+](=O)[O-])ccc32)C(OC(C)=O)C1OC(C)=O (stereo not given)
inactive: endpoint: mean survival time, dose: 12.5 mg/kg/injection, schedule: Q01DX005 (ip), vehicle: other 96 % of control | endpoint: mean survival time, dose: 25.0 mg/kg/injection, schedule: Q01DX005 (ip), vehicle: other 96 % of control | endpoint: mean survival time, dose: 50.0 mg/kg/injection, schedule: Q01DX005 (ip), vehicle: other 92 % of control | endpoint: mean survival time, dose: 100.0 mg/kg/injection, schedule: Q01DX005 (ip), vehicle: other 88 % of control

COC(=O)C1(C(=O)OC)CC1C(=O)c1ccccc1 (stereo not given)
inactive: [1] 98 % of control | [2] 98 % of control | [3] 95 % of control

C/C=C/c1ccc(OC(C)=O)c(OC)c1
inactive: [4] 100 % of control | [1] 94 % of control | [5] 94 % of control | [2] 100 % of control | [6] 105 % of control | [3] 94 % of control

CN(C)Cc1cc(O)cc(CN(C)C)c1O
inactive: endpoint: mean survival time, dose: 75.0 mg/kg/injection, schedule: Q01DX001 (ip), vehicle: other 98 % of control | endpoint: mean survival time, dose: 150.0 mg/kg/injection, schedule: Q01DX001 (ip), vehicle: other 96 % of control | endpoint: mean survival time, dose: 300.0 mg/kg/injection, schedule: Q01DX001 (ip), vehicle: other 98 % of control

Cc1ccc([N+](=O)[O-])cc1NC(=O)Nc1ncccn1
inactive: endpoint: mean survival time, dose: 50.0 mg/kg/injection, schedule: Q01DX009 (ip), vehicle: Klucel (hydroxypropylcellulose) (HPC) 93 % of control | endpoint: mean survival time, dose: 100.0 mg/kg/injection, schedule: Q01DX009 (ip), vehicle: Klucel (hydroxypropylcellulose) (HPC) 96 % of control | endpoint: mean survival time, dose: 200.0 mg/kg/injection, schedule: Q01DX009 (ip), vehicle: Klucel (hydroxypropylcellulose) (HPC) 93 % of control

CCOC(=O)NNC(=O)OCC
inactive: [7] 97 % of control | endpoint: mean survival time, dose: 12.5 mg/kg/injection, schedule: Q01DX009 (ip), vehicle: saline 90 % of control | endpoint: mean survival time, dose: 25.0 mg/kg/injection, schedule: Q01DX009 (ip), vehicle: saline with Tween-80 96 % of control | endpoint: mean survival time, dose: 25.0 mg/kg/injection, schedule: Q01DX009 (ip), vehicle: saline 101 % of control | [8] 102 % of control | endpoint: mean survival time, dose: 50.0 mg/kg/injection, schedule: Q01DX009 (ip), vehicle: saline 105 % of control

O=C1C=C(c2ccccc2)C(=O)C(c2ccccc2)=C1c1ccccc1
inactive: [9] 94 % of control | [10] 94 % of control | [11] 90 % of control

N#CCCc1ccccc1
inactive: endpoint: mean survival time, dose: 3.13 mg/kg/injection, schedule: Q01DX009 (ip), vehicle: saline with Tween-80 97 % of control | endpoint: mean survival time, dose: 3.13 mg/kg/injection, schedule: Q04DX003 (ip), vehicle: saline 92 % of control | endpoint: mean survival time, dose: 6.25 mg/kg/injection, schedule: Q01DX009 (ip), vehicle: saline with Tween-80 94 % of control | endpoint: mean survival time, dose: 6.25 mg/kg/injection, schedule: Q04DX003 (ip), vehicle: saline 89 % of control | [7] 94 % of control | endpoint: mean survival time, dose: 12.5 mg/kg/injection, schedule: Q04DX003 (ip), vehicle: saline with Tween-80 106 % of control | endpoint: mean survival time, dose: 12.5 mg/kg/injection, schedule: Q04DX003 (ip), vehicle: saline 92 % of control | endpoint: mean survival time, dose: 25.0 mg/kg/injection, schedule: Q04DX003 (ip), vehicle: saline with Tween-80 123 % of control | endpoint: mean survival time, dose: 50.0 mg/kg/injection, schedule: Q04DX003 (ip), vehicle: saline with Tween-80 92 % of control

O=c1ccn(C2CC(O)C(COC(c3ccccc3)(c3ccccc3)c3ccccc3)O2)c(=O)[nH]1 (stereo not given)
inactive: endpoint: median survival time, dose: 12.5 mg/kg/injection, schedule: Q01DX005 (ip), vehicle: saline with Tween-80 98 % of control and 97 % of control | endpoint: median survival time, dose: 25.0 mg/kg/injection, schedule: Q01DX005 (ip), vehicle: saline with Tween-80 99 % of control and 92 % of control | endpoint: median survival time, dose: 50.0 mg/kg/injection, schedule: Q01DX005 (ip), vehicle: saline with Tween-80 99 % of control and 96 % of control | endpoint: median survival time, dose: 100.0 mg/kg/injection, schedule: Q01DX005 (ip), vehicle: saline with Tween-80 100 % of control and 96 % of control | endpoint: median survival time, dose: 200.0 mg/kg/injection, schedule: Q01DX005 (ip), vehicle: saline with Tween-80 100 % of control and 98 % of control

CC(C)(C)NO
inactive: endpoint: mean survival time, dose: 100.0 mg/kg/injection, schedule: Q01DX001 (ip), vehicle: Klucel (hydroxypropylcellulose) (HPC) 100 % of control | endpoint: mean survival time, dose: 200.0 mg/kg/injection, schedule: Q01DX001 (ip), vehicle: Klucel (hydroxypropylcellulose) (HPC) 96 % of control | endpoint: mean survival time, dose: 400.0 mg/kg/injection, schedule: Q01DX001 (ip), vehicle: Klucel (hydroxypropylcellulose) (HPC) 100 % of control

N#CC(C#N)C(O)c1c[nH]c2ccccc12 (stereo not given)
inactive: endpoint: mean survival time, dose: 100.0 mg/kg/injection, schedule: Q01DX001 (ip), vehicle: saline with Tween-80 102 % of control | endpoint: mean survival time, dose: 200.0 mg/kg/injection, schedule: Q01DX001 (ip), vehicle: saline with Tween-80 96 % of control | endpoint: mean survival time, dose: 400.0 mg/kg/injection, schedule: Q01DX001 (ip), vehicle: saline with Tween-80 94 % of control

O=[N+]([O-])c1ccc(N=Nc2ccc3c(c2)-c2ccccc2C3=P(c2ccccc2)(c2ccccc2)c2ccccc2)cc1
inactive: [8] 94 % of control | [4] 91 % of control | [1] 91 % of control | [5] 94 % of control | [2] 91 % of control

O=C1C2C3SC(c4nc5ccccc5cc43)C2C(=O)N1c1ccccc1 (stereo not given)
inactive: endpoint: mean survival time, dose: 25.0 mg/kg/injection, schedule: Q01DX001 (ip), vehicle: saline with Tween-80 92 % of control | endpoint: mean survival time, dose: 50.0 mg/kg/injection, schedule: Q01DX001 (ip), vehicle: saline with Tween-80 92 % of control

O=c1[nH]cnc2ccccc12
inactive: [9] 96 % of control | [10] 101 % of control | [11] 104 % of control

CCCCCCCCCCCCCCCCCC(CCCCCCCC)CCCCCCCC
inactive: endpoint: mean survival time, dose: 100.0 mg/kg/injection, schedule: Q01DX001 (ip), vehicle: saline 96 % of control | endpoint: mean survival time, dose: 200.0 mg/kg/injection, schedule: Q01DX001 (ip), vehicle: saline 94 % of control | endpoint: mean survival time, dose: 400.0 mg/kg/injection, schedule: Q01DX001 (ip), vehicle: saline 91 % of control

Cc1cc([N+](=O)[O-])cc(C)c1O
inactive: [1] 100 % of control | [2] 96 % of control | [3] 100 % of control

Cc1ncc(C(=O)O)n1Cc1ccccc1
inactive: [4] 94 % of control | [5] 94 % of control | [6] 92 % of control
